Results from patent US9765087B2, “Benzimidazole derivatives” (ENANTA PHARMACEUTICALS, INC., priority 2009, dated 2017).
Like-named read-outs stand apart in the source and are kept apart here.

Test system: HCV 1b genotype replicon
Test: HCV replicon assay (qRT-PCR or luciferase), genotype 1b
Format: cell-based
Settings: Hepatitis C virus
Excerpt: HCV replicon cell lines (kindly provided by R. Bartenschlager) isolated from colonies as described by Lohman et. al. (Lohman et al. (1999) Science 285: 110-113, expressly incorporated by reference in its entirety) and used for all experiments. The HCV replicon has the nucleic acid sequence set forth in EMBL Accession No.: AJ242651, the coding sequence of which is from nucleotides 1801 to 8406.
The coding sequence of the published HCV replicon was synthesized and subsequently assembled in a modified plasmid pBR322 (Promega, Madison, Wis.) using standard molecular biology techniques. One replicon cell line (“SGR 11-7”) stably expresses HCV replicon RNA which consists of (i) the HCV 5′UTR fused to the first 12 amino acids of the capsid protein, (ii) the neomycin phosphotransferase gene (neo), (iii) the IRES from encephalomyocarditis virus (EMCV), and (iv) HCV […] to NSSB genes and the HCV 3′UTR. Another replicon cell line (“Huh-luc/neo-ET”) described by Vrolijk et. al. (Vrolijk et. al. (2003) Journal of Virological Methods 110:201-209, expressly incorporated by reference in its entirety) stably expresses HCV replicon RNA which consists of (i) the HCV 5′UTR fused to the first 12 amino acids of the capsid protein, (ii) the firefly luciferase reporter gene, (iii) the ubiquitin gene, (iv) the neomycin phosphotransferase gene (neo), (v) the IRES from encephalomyocarditis virus (EMCV), and (vi) HCV NS3 to NS5B genes that harbor cell culture adaptive mutations (E1202G, T1280I, K1846T) and the HCV 3′UTR.
These cell lines were maintained at 37° C., 5% CO2, 100% relative humidity in DMEM (Cat#11965-084, Invitrogen), with 10% fetal calf serum (“FCS”, Invitrogen), 1% non-essential amino acids (Invitrogen), 1% of Glutamax (Invitrogen), 1% of 100× penicillin/streptomycin (Cat#15140-122, Invitrogen) and Geneticin (Cat#10131-027, Invitrogen) at 0.75 mg/ml or 0.5 mg/ml for 11-7 and Huh-luc/neo-ET cells, respectively.
EC50 values of single agent compounds and combinations were determined by HCV RNA detection using quantitative RT-PCR, according to the manufacturer's instructions, with a TAQMAN® One-Step RT-PCR Master Mix Reagents Kit (Cat#AB 4309169, Applied Biosystems) on an ABI Model 7500 thermocycler. The TaqMan primers used for detecting and quantifying HCV RNA were obtained from Integrated DNA Technologies. HCV RNA was normalized to GAPDH RNA levels in drug-treated cells, which is detected and quantified using the Human GAPDH Endogenous Control Mix (Applied Biosystems, AB 4310884E). Total cellular RNA is purified from 96-well plates using the RNAqueous 96 kit (Ambion, Cat# AM1812). Chemical agent cytotoxicity is evaluated using an MTS assay according to the manufacturer's directions (Promega).
Since clinical drug resistance often develops in viral infections following single agent therapies, there is a need to assess the additive, antagonistic, or synergistic properties of combination therapies. We used the HCV replicon system to assess the potential use of the compound of the present invention or in combination therapies with Interferon alpha, cyclosporine analogs and inhibitors targeting other HCV proteins. The acute effects of a single or combinations of drugs are studied in the “Huh-luc/neo-ET” replicon with each chemical agent titrated in an X or Y direction in a 6 point two-fold dilution curve centered around the EC50 of each drug. Briefly, replicon cells are seeded at 7,000 cells per well in 90 ul DMEM (without phenol red, Invitrogen Cat.#31053-036) per well with 10% FCS, 1% non-essential amino acids, 1% of Glutamax and 1% of 100× penicillin/streptomycin and incubated overnight at 37° C., 5% CO2, 100% relative humidity. […]

[1] = Table 11, qRT-PCR or luciferase assay, read-out: Genotype-1b replicon EC50 Range
[2] = Table 12, numeric values, read-out: 1b EC50
[3] = Table 12, range class, read-out: 1b EC50 Range

Row | SMILES | EC50 [1] | EC50 [2] | further results
1 | COC(=O)N[C@H](C(=O)N1CCC[C@H]1c1ncc(-c2ccc(C#Cc3ccc4nc([C@@H]5CCCN5C(=O)[C@@H](NC(=O)OC)[C@H](C)O)[nH]c4c3)cc2)[nH]1)C(C)C [Example 531] | < 1000 pM |  | 
2 | CCC(NC(=O)OC)(C(=O)N1CCC[C@H]1c1nc2ccc(C#Cc3ccc(-c4cnc([C@@H]5CCCN5C(=O)[C@@H](NC(=O)OC)C(C)C)[nH]4)cc3)cc2[nH]1)c1ccccc1 (stereo partly shown) [Example 532] | < 1000 pM |  | 
3 | COC(=O)N[C@@H](C(=O)N1CCC[C@H]1c1nc2ccc(C#Cc3ccc(-c4cnc([C@@H]5CCCN5C(=O)[C@H](NC(=O)OC)c5ccccc5)o4)cc3)cc2[nH]1)c1ccccc1 [Example 533] | < 1000 pM |  | 
4 | COC(=O)N[C@@H](C(=O)N1CCC[C@H]1c1nc2ccc(CCc3ccc(-c4cnc([C@@H]5CCCN5C(=O)[C@H](NC(=O)OC)c5ccccc5)o4)cc3)cc2[nH]1)c1ccccc1 [Example 534] | < 1000 pM |  | 
5 | COC(=O)N[C@H](C(=O)N1C[C@H](O)C[C@H]1c1ncc(-c2ccc(C#Cc3ccc4nc([C@@H]5CCCN5C(=O)[C@@H](NC(=O)OC)C(C)C)[nH]c4c3)cc2)[nH]1)C(C)C [Example 535] | < 1000 pM |  | 
6 | COC(=O)N[C@H](C(=O)N1CCC[C@H]1c1ncc(-c2ccc(C#Cc3ccc4nc([C@]5(Cc6ccccc6)CCCN5C(=O)[C@@H](NC(=O)OC)C(C)C)[nH]c4c3)cc2)[nH]1)C(C)C [Example 536] | < 1000 pM |  | 
7 | COC(=O)N[C@H](C(=O)N1CCC[C@H]1c1ncc(-c2ccc(C#Cc3ccc4nc([C@@H]5C[C@@H](Oc6ccccc6)CN5C(=O)[C@@H](NC(=O)OC)C(C)C)[nH]c4c3)cc2)[nH]1)C(C)C [Example 537] | < 1000 pM |  | 
8 | COC(=O)N[C@H](C(=O)N1CCC[C@H]1c1ncc(-c2ccc(C#Cc3ccc4nc([C@@H]5C[C@H](Oc6ccccc6)CN5C(=O)[C@@H](NC(=O)OC)C(C)C)[nH]c4c3)cc2)[nH]1)C(C)C [Example 538] | < 1000 pM |  | 
9 | COC(=O)N[C@H](C(=O)N1CCC[C@H]1c1ncc(-c2ccc(C#Cc3ccc4nc([C@]5(C)CCCN5C(=O)[C@@H](NC(=O)OC)C(C)C)[nH]c4c3)cc2)[nH]1)C(C)C [Example 539] | < 1000 pM |  | 
10 | COC(=O)N[C@H](C(=O)N1CCC[C@H]1c1ncc(-c2ccc(C#Cc3ccc4nc([C@@H]5C[C@@H](F)CN5C(=O)[C@@H](NC(=O)OC)C(C)C)[nH]c4c3)cc2)[nH]1)C(C)C [Example 540] | < 1000 pM |  | 
11 | COC(=O)N[C@H](C(=O)N1CCC[C@H]1c1ncc(-c2ccc(C#Cc3ccc4nc([C@@H]5C[C@H]6C[C@H]6N5C(=O)[C@@H](NC(=O)OC)C(C)C)[nH]c4c3)cc2)[nH]1)C(C)C [Example 541] | < 1000 pM |  | 
12 | COC(=O)N[C@H](C(=O)N1CCC[C@H]1c1ncc(-c2ccc(C#Cc3ccc4nc([C@@H]5CC[C@H](C)N5C(=O)[C@@H](NC(=O)OC)C(C)C)[nH]c4c3)cc2)[nH]1)C(C)C [Example 542] | < 1000 pM |  | 
13 | COC(=O)N[C@H](C(=O)N1CC2(CC2)C[C@H]1c1nc(-c2ccc(C#Cc3ccc4[nH]c([C@@H]5CC6(CC6)CN5C(=O)[C@@H](NC(=O)OC)C(C)C)nc4c3)cc2)c[nH]1)C(C)C [Example 548] |  | 4 pM | 
14 | COC(=O)N[C@H](C(=O)N1CCC[C@H]1c1ncc(-c2ccc(C#Cc3ccc4nc([C@@H]5C[C@]6(CC(C)=NO6)CN5C(=O)[C@@H](NC(=O)OC)C(C)C)[nH]c4c3)cc2)[nH]1)C(C)C [Example 554] |  | 28 pM | 
15 | COC(=O)N[C@H](C(=O)N1C[C@@H](C)C[C@H]1c1ncc(-c2ccc(C#Cc3ccc4nc([C@@H]5C[C@@]6(CCCO6)CN5C(=O)[C@@H](NC(=O)OC)C(C)C)[nH]c4c3)cc2)[nH]1)C(C)C [Example 559] |  | 14 pM | 
16 | COC(=O)N[C@H](C(=O)N1CC(C)(C)C[C@H]1c1ncc(-c2ccc(C#Cc3ccc4nc([C@@H]5C[C@@]6(CCCO6)CN5C(=O)[C@@H](NC(=O)OC)C(C)C)[nH]c4c3)cc2)[nH]1)C(C)C [Example 560] |  |  | EC50 [3]: < 1000 pM
17 | COC(=O)N[C@H](C(=O)N1CCC[C@H]1c1ncc(-c2ccc(C#Cc3ccc4nc([C@@H]5C[C@@]6(CC=CCO6)CN5C(=O)[C@@H](NC(=O)OC)C(C)C)[nH]c4c3)cc2)[nH]1)C(C)C [Example 563] |  | 12 pM | 
18 | COC(=O)N[C@H](C(=O)N1CCC[C@H]1c1ncc(-c2ccc(C#Cc3ccc4nc([C@@H]5C[C@]6(CCCOC6)CN5C(=O)[C@@H](NC(=O)OC)C(C)C)[nH]c4c3)cc2)[nH]1)C(C)C [Example 570] |  | 8 pM | 
19 | COC(=O)N[C@H](C(=O)N1CC2(CC2)C[C@H]1c1nc2cc(C#Cc3ccc(-c4cn(O)c([C@@H]5CC6(CC6)CN5C(=O)[C@@H](NC(=O)OC)C(C)C)n4)cc3)ccc2[nH]1)C(C)C [Example 571] |  | 13 pM | 
20 | COC(=O)N[C@H](C(=O)N1CC2(CC2)C[C@H]1c1nc2cc(C#Cc3ccc(-c4coc([C@@H]5CC6(CC6)CN5C(=O)[C@@H](NC(=O)OC)C(C)C)n4)cc3)ccc2[nH]1)C(C)C [Example 577] |  | 160 pM | 
21 | COC(=O)N[C@H](C(=O)N1CC2(CC2)C[C@H]1c1ncc(-c2ccc(C#Cc3ccc4nc([C@@H]5CC6(CC6)CN5C(=O)[C@H](NC(=O)OC)c5ccccc5)[nH]c4c3)cc2)[nH]1)C(C)C [Example 578] |  | 6 pM | 
22 | COC(=O)N[C@H](C(=O)N1CCC[C@H]1c1ncc(-c2ccc(C#Cc3ccc4nc([C@@H]5C[C@@]6(CC(C)=NO6)CN5C(=O)[C@@H](NC(=O)OC)C(C)C)[nH]c4c3)cc2)[nH]1)C(C)C [Example 623] |  |  | EC50 [3]: < 1000 pM
23 | COC(=O)N[C@H](C(=O)N1C[C@H](C)C[C@H]1c1ncc(-c2ccc(C#Cc3ccc4nc([C@@H]5C[C@@]6(CCCO6)CN5C(=O)[C@@H](NC(=O)OC)C(C)C)[nH]c4c3)cc2)[nH]1)C(C)C [Example 628] |  | 9 pM | 
24 | COC(=O)N[C@H](C(=O)N1CCC[C@H]1c1ncc(-c2ccc(C#Cc3ccc4nc([C@@H]5C[C@@]6(CCCCO6)CN5C(=O)[C@@H](NC(=O)OC)C(C)C)[nH]c4c3)cc2)[nH]1)C(C)C [Example 632] |  | 13 pM | 
25 | COC(=O)N[C@H](C(=O)N1C[C@@](C)(F)C[C@H]1c1ncc(-c2ccc(C#Cc3ccc4nc([C@@H]5C[C@@]6(CCCO6)CN5C(=O)[C@@H](NC(=O)OC)C(C)C)[nH]c4c3)cc2)[nH]1)C(C)C [Example 636] |  | 20 pM | 
26 | COC(=O)N[C@H](C(=O)N1CCC[C@H]1c1ncc(-c2ccc3cc(-c4ccc5nc([C@@H]6C[C@H](C7CC7)CN6C(=O)[C@@H](NC(=O)OC)C(C)C)[nH]c5c4)ccc3c2)[nH]1)C(C)C [Example 642] |  | 7 pM | 
27 | COC(=O)N[C@H](C(=O)N1[C@@H]2C[C@@H]2C[C@H]1c1ncc(-c2ccc(C#Cc3ccc4nc([C@@H]5CC6(CC6)CN5C(=O)[C@H](NC(=O)OC)c5ccccc5)[nH]c4c3)cc2)[nH]1)C(C)C [Example 648] |  |  | EC50 [3]: < 1000 pM
28 | COC(=O)N[C@H](C(=O)N1CC2(CC2)C[C@H]1c1ncc(-c2ccc(C#Cc3ccc4nc([C@@H]5CC6(CC6)CN5C(=O)OC(C)(C)C)[nH]c4c3)cc2)[nH]1)C(C)C [Example 649] |  | 304 pM | 
